For the test, the system named is L1210 leukemia ip in BDF1 mice, survival T/C. In words: NCI In Vivo Anticancer Drug Screen. Data for tumor model L1210 Leukemia (intraperitoneal) in B6D2F1 (BDF1) mice. The following applies: endpoint: mean survival time, higher = longer survival. The procedure, abridged: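 Tumor was transplanted into mice, which were then dosed with test compound or vehicle alone. Survival was recorded for each group, and the treated figure was expressed relative to the control figure.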

The mark [1] stands for this setting: dose: 50.0 mg/kg/injection, schedule: Q01DX001 (ip), vehicle: saline.
The mark [2] stands for this setting: dose: 100.0 mg/kg/injection, schedule: Q01DX001 (ip), vehicle: saline.
[3] abbreviates: dose: 200.0 mg/kg/injection, schedule: Q04DX003 (ip), vehicle: saline.
Where [4] appears, read: dose: 100.0 mg/kg/injection, schedule: Q04DX003 (ip), vehicle: saline with Tween-80.
The mark [5] stands for this setting: dose: 200.0 mg/kg/injection, schedule: Q04DX003 (ip), vehicle: saline with Tween-80.
Where [6] appears, read: dose: 100.0 mg/kg/injection, schedule: Q04DX002 (ip), vehicle: Klucel (hydroxypropylcellulose) (HPC).
Setting [7] is: dose: 200.0 mg/kg/injection, schedule: Q04DX002 (ip), vehicle: Klucel (hydroxypropylcellulose) (HPC).
Setting [8] is: dose: 400.0 mg/kg/injection, schedule: Q04DX002 (ip), vehicle: Klucel (hydroxypropylcellulose) (HPC).
Setting [9] is: dose: 100.0 mg/kg/injection, schedule: Q01DX009 (ip), vehicle: saline.
The mark [10] stands for this setting: dose: 200.0 mg/kg/injection, schedule: Q01DX009 (ip), vehicle: saline.
Setting [11] is: dose: 400.0 mg/kg/injection, schedule: Q01DX009 (ip), vehicle: saline.
The mark [12] stands for this setting: dose: 100.0 mg/kg/injection, schedule: Q04DX003 (ip), vehicle: Klucel (hydroxypropylcellulose) (HPC).
[13] abbreviates: dose: 200.0 mg/kg/injection, schedule: Q04DX003 (ip), vehicle: Klucel (hydroxypropylcellulose) (HPC).
[14] abbreviates: dose: 50.0 mg/kg/injection, schedule: Q01DX009 (ip), vehicle: saline with Tween-80.
Setting [15] is: dose: 200.0 mg/kg/injection, schedule: Q01DX001 (ip), vehicle: saline.

Each structure is given as a SMILES string. Where “and” joins values, the source holds several entries; their conditions need not be identical. Equal entries are not always repeated. Toxic doses and inconclusive results are not listed.

Turning to `c1nnc(NCNc2nncs2)s1`, the T/C reads like this: (dose: 2.6 mg/kg/injection, schedule: Q01DX009 (ip), vehicle: Klucel (hydroxypropylcellulose) (HPC)) 115 % of control; (dose: 6.0 mg/kg/injection, schedule: Q01DX009 (ip), vehicle: Klucel (hydroxypropylcellulose) (HPC)) 124 % of control; (dose: 7.5 mg/kg/injection, schedule: Q01DX009 (ip), vehicle: saline) 122 % of control; (dose: 12.0 mg/kg/injection, schedule: Q04DX003 (ip), vehicle: Klucel (hydroxypropylcellulose) (HPC)) 121 % of control; (dose: 15.0 mg/kg/injection, schedule: Q01DX009 (ip), vehicle: saline) 120 % of control; (dose: 18.0 mg/kg/injection, schedule: Q04DX003 (ip), vehicle: Klucel (hydroxypropylcellulose) (HPC)) 122 % of control. Moreover, the T/C is 154 % of control (dose: 19.0 mg/kg/injection, schedule: Q01DX009 (ip), vehicle: saline); 109 % of control (dose: 20.0 mg/kg/injection, schedule: Q01DX009 (ip), vehicle: Klucel (hydroxypropylcellulose) (HPC)); 95 % of control (dose: 30.0 mg/kg/injection, schedule: Q01DX009 (ip), vehicle: Klucel (hydroxypropylcellulose) (HPC)); 166 % of control (dose: 30.0 mg/kg/injection, schedule: Q01DX009 (ip), vehicle: saline); 87 % of control (dose: 45.0 mg/kg/injection, schedule: Q01DX009 (ip), vehicle: Klucel (hydroxypropylcellulose) (HPC)); 114 % of control (dose: 45.0 mg/kg/injection, schedule: Q01DX009 (ip), vehicle: saline). Besides, the T/C is, setting by setting: under setting [1], 110 % of control; (dose: 50.0 mg/kg/injection, schedule: Q04DX003 (ip), vehicle: saline) 111 % of control; (dose: 60.0 mg/kg/injection, schedule: Q01DX009 (ip), vehicle: saline) 115 % of control; under setting [2], 117 % of control; under setting [3], 167 % of control and 168 % of control; (dose: 300.0 mg/kg/injection, schedule: Q04DX003 (ip), vehicle: Klucel (hydroxypropylcellulose) (HPC)) 106 % of control. For the setting “dose: 300.0 mg/kg/injection, schedule: Q04DX003 (ip), vehicle: saline”, the T/C was 113 % of control.
For `COC1OC2COC(c3ccccc3)OC2C(O)C1OS(=O)(=O)c1ccc(C)cc1` (configuration not stated), the T/C under setting [4] was 87 % of control and the T/C under setting [5] was 87 % of control.
For `Clc1ccc(/C=C/c2nccc(Cl)n2)cc1`, the T/C by setting is: under setting [4], 106 % of control; under setting [5], 106 % of control; (dose: 400.0 mg/kg/injection, schedule: Q04DX003 (ip), vehicle: saline with Tween-80) 106 % of control.
For `c1ccc(-c2c3ccccc3c(-c3ccccc3)c3cc4ccccc4cc23)cc1`, the T/C by setting is: under setting [6], 95 % of control; under setting [7], 98 % of control; under setting [8], 92 % of control.
Turning to `CC1CC2C(CC1O)C2(C)C` (configuration not stated), the T/C under setting [9] is 97 % of control; the T/C (dose: 100.0 mg/kg/injection, schedule: Q04DX003 (ip), vehicle: saline) was 94 % of control; the T/C under setting [10] is 101 % of control; the T/C under setting [3] is 94 % of control; the T/C under setting [11] was 106 % of control; the T/C (dose: 400.0 mg/kg/injection, schedule: Q04DX003 (ip), vehicle: saline) was 91 % of control.
For `Cc1ccc(/C=N/NC(=O)c2ccc(N=NN(C)C)cc2)cc1`, the T/C is 95 % of control (dose: 50.0 mg/kg/injection, schedule: Q04DX003 (ip), vehicle: Klucel (hydroxypropylcellulose) (HPC)); 99 % of control under setting [12]; 100 % of control under setting [13].
Consider `CCCCCCCCCCCCNC(=S)NCCCCCCCCCCCC`, for which the T/C under setting [12] is 92 % of control; the T/C under setting [13] was 92 % of control; the T/C (dose: 400.0 mg/kg/injection, schedule: Q04DX003 (ip), vehicle: Klucel (hydroxypropylcellulose) (HPC)) was 89 % of control.
With `NC(=O)CC(N)C(N)=O` (configuration not stated), the T/C was 98 % of control (dose: 100.0 mg/kg/injection, schedule: Q04DX002 (ip), vehicle: saline); 106 % of control (dose: 200.0 mg/kg/injection, schedule: Q04DX002 (ip), vehicle: saline); 109 % of control (dose: 400.0 mg/kg/injection, schedule: Q04DX002 (ip), vehicle: saline).
Consider `COC(=O)CC(=O)C(Cl)C(=O)OC` (configuration not stated), for which the T/C is 97 % of control (dose: 50.0 mg/kg/injection, schedule: Q01DX009 (ip), vehicle: saline) and 108 % of control under setting [9].
As to `CSc1ncnc2c1ncn2C1CCCO1` (configuration not stated), the T/C was 101 % of control (dose: 37.5 mg/kg/injection, schedule: Q01DX Z (ip), vehicle: methylcellulose (MC)) and 111 % of control (dose: 75.0 mg/kg/injection, schedule: Q01DX Z (ip), vehicle: methylcellulose (MC)).
On to `COc1ccc(/C=N/NC(=O)CNC(=O)Nc2cccc(Cl)c2Cl)cc1`, for which the T/C is 93 % of control under setting [14] and 96 % of control (dose: 100.0 mg/kg/injection, schedule: Q01DX009 (ip), vehicle: saline with Tween-80).
As for `Cc1c2c(cc3c1OCN(C)C3)CN(C)CO2`, the T/C is 104 % of control under setting [1], 101 % of control under setting [2] and 107 % of control under setting [15].
For the compound `Clc1ccc(Cl)c(-c2csc(-c3cccnc3)n2)c1`, the T/C is 100 % of control under setting [9], 100 % of control under setting [10] and 89 % of control under setting [11].
Take `COC(C(OC(C)=O)C(OC(C)=O)C(OC(C)=O)C(COC(C)=O)OC(C)=O)n1cc(C)c(=O)[nH]c1=O` (configuration not stated): the T/C by setting is: under setting [1], 103 % of control; under setting [2], 97 % of control; under setting [15], 95 % of control; (dose: 400.0 mg/kg/injection, schedule: Q01DX001 (ip), vehicle: saline) 91 % of control.
With `CCc1nc(N)ncc1-c1ccc([N+](=O)[O-])cc1O`, the T/C runs as follows: under setting [6], 97 % of control; under setting [7], 100 % of control; under setting [8], 90 % of control.
With `C[n+]1c2ccccc2cc2ccc(N=[N+]=[N-])cc21`, the T/C by setting is: (dose: 6.25 mg/kg/injection, schedule: Q01DX009 (ip), vehicle: saline) 101 % of control; (dose: 6.25 mg/kg/injection, schedule: Q04DX003 (ip), vehicle: saline) 101 % of control; (dose: 12.5 mg/kg/injection, schedule: Q01DX001 (ip), vehicle: saline) 97 % of control; (dose: 12.5 mg/kg/injection, schedule: Q01DX009 (ip), vehicle: saline) 98 % of control; (dose: 12.5 mg/kg/injection, schedule: Q04DX003 (ip), vehicle: saline) 100 % of control; (dose: 25.0 mg/kg/injection, schedule: Q01DX001 (ip), vehicle: saline) 97 % of control. Moreover, the T/C is 98 % of control (dose: 25.0 mg/kg/injection, schedule: Q01DX009 (ip), vehicle: saline); 111 % of control (dose: 25.0 mg/kg/injection, schedule: Q04DX003 (ip), vehicle: saline); 104 % of control (dose: 35.0 mg/kg/injection, schedule: Q01DX009 (ip), vehicle: saline).
Turning to `CCCCc1cn(C(=O)CCCl)nn1`, the T/C by setting is: (dose: 100.0 mg/kg/injection, schedule: Q04DX002 (ip), vehicle: saline with Tween-80) 100 % of control; (dose: 200.0 mg/kg/injection, schedule: Q04DX002 (ip), vehicle: saline with Tween-80) 100 % of control.
With `CN1CCC(SC(=O)C(O)(c2ccccc2)c2ccccc2)CC1`, the T/C by setting is: (dose: 75.0 mg/kg/injection, schedule: Q01DX001 (ip), vehicle: saline) 94 % of control; (dose: 150.0 mg/kg/injection, schedule: Q01DX001 (ip), vehicle: saline) 95 % of control.
As for `COC1(c2ccc(Cl)cc2)OC(=O)C(c2ccccc2)=C1Cc1ccccc1` (configuration not stated), the T/C is, setting by setting: (dose: 12.5 mg/kg/injection, schedule: Q01DX009 (ip), vehicle: saline with Tween-80) 93 % of control; (dose: 25.0 mg/kg/injection, schedule: Q01DX009 (ip), vehicle: saline with Tween-80) 89 % of control; under setting [14], 100 % of control.

The values above are taken from PubChem BioAssay AID248 (DTP/NCI, 2004).
